# Results as given in patent US20050020519A1, “Modulation of insulin-regulated aminopeptidase (irap)/angiotensin iv (at4) receptor activity” (priority 2001, published 2005).
# Where no end group is shown, it is not given here.
# Experiments:
# [1] = target: T1, IRAP (Homo sapiens, UniProt Q9UIQ6); assay: Degradation of peptides by IRAP expressed in HEK 293T cells, HPLC with mass spectrometric detection; format: biochemical
# T1 construct: expressed in transfected cells; host or cells: HEK 293T cells (solubilised membrane protein)
# T1 sequence (Q9UIQ6 whole entry): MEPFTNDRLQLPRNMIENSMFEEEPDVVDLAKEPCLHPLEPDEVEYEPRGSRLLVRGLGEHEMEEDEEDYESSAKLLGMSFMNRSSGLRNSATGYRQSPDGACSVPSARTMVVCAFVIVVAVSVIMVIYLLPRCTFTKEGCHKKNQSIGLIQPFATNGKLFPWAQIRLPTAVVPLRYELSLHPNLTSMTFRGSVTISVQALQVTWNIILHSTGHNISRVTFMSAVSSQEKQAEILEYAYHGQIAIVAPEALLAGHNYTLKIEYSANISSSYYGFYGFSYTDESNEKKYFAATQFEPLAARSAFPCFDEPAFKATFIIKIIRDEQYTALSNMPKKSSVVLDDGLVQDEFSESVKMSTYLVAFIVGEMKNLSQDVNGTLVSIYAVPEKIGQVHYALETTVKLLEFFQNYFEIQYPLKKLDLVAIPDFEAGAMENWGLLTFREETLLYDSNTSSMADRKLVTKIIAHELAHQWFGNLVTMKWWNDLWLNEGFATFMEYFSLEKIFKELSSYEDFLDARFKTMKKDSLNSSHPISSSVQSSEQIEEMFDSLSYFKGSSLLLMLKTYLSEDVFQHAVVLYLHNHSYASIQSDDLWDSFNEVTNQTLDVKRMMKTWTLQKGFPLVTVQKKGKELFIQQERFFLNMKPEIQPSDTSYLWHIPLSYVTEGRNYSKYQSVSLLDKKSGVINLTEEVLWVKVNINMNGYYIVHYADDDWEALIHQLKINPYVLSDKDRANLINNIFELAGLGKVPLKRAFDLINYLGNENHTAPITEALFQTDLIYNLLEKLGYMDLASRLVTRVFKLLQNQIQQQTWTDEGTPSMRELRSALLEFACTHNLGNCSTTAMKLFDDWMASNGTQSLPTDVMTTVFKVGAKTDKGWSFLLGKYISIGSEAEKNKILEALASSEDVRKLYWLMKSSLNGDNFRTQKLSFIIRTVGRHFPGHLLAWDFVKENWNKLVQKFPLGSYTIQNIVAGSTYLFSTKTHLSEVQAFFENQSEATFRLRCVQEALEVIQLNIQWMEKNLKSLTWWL
# Procedure: At each time point (0, 0.5, 1, 2, 4 & 6 hr), an aliquot containing 5 μg peptide was removed, and the reaction stopped by addition of 4 volumes methanol/1% trifluoroacetic acid (TPA). Samples were dried on a centrifugal vacuum evaporator prior to HPLC analysis with on-line mass spectrometric detector. […] Fragments were identified following mass spectral analysis, using Agilent ChemStation deconvolution software.
# [2] = target: T2, AT4 receptor (Bos taurus, UniProt F1N1Q8); assay: AT4 radioreceptor assay, ^125I-Ang IV binding to bovine adrenal membranes
# T2 construct: from tissue; host or cells: bovine adrenal gland membranes
# T2 sequence (F1N1Q8 1-1022): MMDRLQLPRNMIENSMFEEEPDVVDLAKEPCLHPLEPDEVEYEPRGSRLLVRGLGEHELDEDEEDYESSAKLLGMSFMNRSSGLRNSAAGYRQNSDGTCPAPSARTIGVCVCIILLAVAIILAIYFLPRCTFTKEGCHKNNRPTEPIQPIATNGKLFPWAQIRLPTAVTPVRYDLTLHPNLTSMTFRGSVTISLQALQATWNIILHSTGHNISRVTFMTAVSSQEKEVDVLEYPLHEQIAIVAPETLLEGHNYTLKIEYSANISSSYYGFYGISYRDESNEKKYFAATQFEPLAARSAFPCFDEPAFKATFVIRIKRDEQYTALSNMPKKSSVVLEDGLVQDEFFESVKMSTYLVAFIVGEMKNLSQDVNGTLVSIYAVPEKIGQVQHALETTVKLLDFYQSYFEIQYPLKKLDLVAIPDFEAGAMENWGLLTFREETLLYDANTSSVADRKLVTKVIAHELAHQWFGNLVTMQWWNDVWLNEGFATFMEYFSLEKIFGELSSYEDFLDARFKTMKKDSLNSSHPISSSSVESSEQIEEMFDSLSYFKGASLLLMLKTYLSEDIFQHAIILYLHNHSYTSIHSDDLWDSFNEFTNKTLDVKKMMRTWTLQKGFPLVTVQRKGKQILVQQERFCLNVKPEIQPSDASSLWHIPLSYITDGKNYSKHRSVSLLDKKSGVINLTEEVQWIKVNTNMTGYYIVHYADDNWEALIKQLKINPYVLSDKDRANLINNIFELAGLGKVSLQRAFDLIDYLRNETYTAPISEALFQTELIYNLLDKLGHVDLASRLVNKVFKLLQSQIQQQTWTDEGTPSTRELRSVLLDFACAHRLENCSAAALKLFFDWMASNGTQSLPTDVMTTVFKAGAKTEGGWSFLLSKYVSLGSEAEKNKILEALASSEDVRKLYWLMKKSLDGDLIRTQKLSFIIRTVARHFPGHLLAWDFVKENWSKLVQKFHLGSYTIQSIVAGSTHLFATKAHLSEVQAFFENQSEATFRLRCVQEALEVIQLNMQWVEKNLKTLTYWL
# Procedure: The AT4 radioreceptor assay was used to screen the sheep brain extracts for AT4 receptor modulatory activity. The membranes were prepared using bovine adrenal glands obtained from the abattoir. The adrenals were diced, homogenized in ice-cold hypotonic buffer (50 mM Tris, 5 mM EDTA, pH 7.4) and centrifuged for 10 min at 500 g. […] The resulting pellets were re-homogenized in hypotonic buffer. […] The samples were incubated for 2 h at 37° C., and the bound ligand was separated on Whatman GF/B glass fibre filters.
# [3] = system: rat hippocampal slices; assay: Potassium-evoked ^3H-choline release from rat hippocampal slices; format: cell-based; settings: at 10^−7M
# Procedure: To determine the effect of IRAP inhibitors an acetylcholine release for rat hippocampal slices in vitro, rats were anaesthetized with sodium pentobarbitone, decapitated and the brain rapidly extracted and put on ice. The two sides of the hippocampus were then dissected, and stored in Krebs buffer on ice. The tissues were sectioned into 400 μm slices using a McI1wain slicer, and incubated with 10 μM of ^3H-choline in Krebs buffer for 20 min at 37° C. Following the incubation, the sections were transferred to Brandel superfusion chambers filled with carbogenated Krebs buffer, pH7.0 containing […] hemicholinium HC-3 to prevent choline reuptake. The slices were washed for 60 min at 37° C. with Krebs buffer at a flow rate of 500 μl/min. Superfusate samples were collected at 5 min intervals for the duration of the experiment. After a stable baseline was established, the hippocampal slices were depolarised by the addition of 30 mM KCl to the Krebs buffer and infused for 4 min (stimulation period S1). The tissue was then allowed to recover for 25 min before the next stimulation period (S2). To test the effect of […] […] Fractional ^3H-choline release, expressed as a ratio of S2/S1, was then calculated for each of the different peptides at the different doses.
# [4] = system: mice; assay: Y maze spatial memory, normal mice; format: in vivo, mouse
# Procedure: The Y maze consists of three identical alleys (30 cm in length, 10 cm in width and 17 cm in height) with the three arms separated by 120° angles. To minimize stress, the maze is located in a sound-attenuated room under dim illumination, with the floor of the maze covered with sawdust. After each trial, the sawdust is mixed to eliminate olfactory cues. For spatial orientation, visual cues are placed on the walls of the testing room.
# The test consisted of two trials, separated by a time interval known as the intertrial interval. During the acquisition trial, the animals were placed at the distal end of one arm, their heads pointing away from the centre of the maze. The mice were allowed to visit only two accessible arms of the maze for 3 minutes. At the end of the acquisition trial, the mice were replaced in their cages for the intertrial interval. During the retention trial, the animals had access to all three arms for 5 minutes. The number and duration of time spent in the novel arm were documented.
# A shorter intertrial interval (2 hours) separating the acquisition phase from the retention phase enables amnesiant effects to be detected. Control mice still remember the location of the novel arm and will preferentially spend more time (45-50% of time) in that arm.
# Mice were surgically implanted with an infusion cannula in the dorsal third ventricle. […]
sequence,measurement,setting,value
LVVYPWTQRF,Substrate disappearance over 4 hr,"[1]; 37° C., hIRAP transfected HEK 293T membranes, (=UT) equals untransfected control cells",14% (=UT)
same,Products Identified,[1]; incubation at 37° C. with solubilized membrane protein from hIRAP transfected HEK 293T cells,VVYPWTQRF
same,Ki,[2],1 to 5 nM
same,maximum effect on potassium-evoked ^3H-choline release,[3],180 % of control
same,time in novel arm versus control mice,[4]; after 6 days of infusion at 0.3 pmol/h,indistinguishable from each other
same,time spent in the novel arm,"[4]; after three days of infusion at 0.3 pmol/h, 6 h intertrial interval, control approximately 33%",50-60 % of time
